Reference: US20110020801A1, “Carboxylesterase-1 Polymorphisms and Methods of Use Therefor” (priority 2007, published 2011)
Substitutions are numbered along the chain they refer to.

What was measured:
Assay type in all cases: biochemical
[1] = biological target: T1, WT CES1 (Homo sapiens, UniProt P23141); experiment: MPH hydrolysis to ritalinic acid by S9 of cells expressing WT CES1 (HPLC); conditions: S9 0.5 mg/mL, 37° C., 2 hours, mean ± S.D. (n = 3), listed as d-isomer
T1 construct: inserting a stop codon after CES1A1 gene to yield the constructs expressing CES1 without V5-His tag; expressed in transfected cells
T1 sequence (P23141 18-567): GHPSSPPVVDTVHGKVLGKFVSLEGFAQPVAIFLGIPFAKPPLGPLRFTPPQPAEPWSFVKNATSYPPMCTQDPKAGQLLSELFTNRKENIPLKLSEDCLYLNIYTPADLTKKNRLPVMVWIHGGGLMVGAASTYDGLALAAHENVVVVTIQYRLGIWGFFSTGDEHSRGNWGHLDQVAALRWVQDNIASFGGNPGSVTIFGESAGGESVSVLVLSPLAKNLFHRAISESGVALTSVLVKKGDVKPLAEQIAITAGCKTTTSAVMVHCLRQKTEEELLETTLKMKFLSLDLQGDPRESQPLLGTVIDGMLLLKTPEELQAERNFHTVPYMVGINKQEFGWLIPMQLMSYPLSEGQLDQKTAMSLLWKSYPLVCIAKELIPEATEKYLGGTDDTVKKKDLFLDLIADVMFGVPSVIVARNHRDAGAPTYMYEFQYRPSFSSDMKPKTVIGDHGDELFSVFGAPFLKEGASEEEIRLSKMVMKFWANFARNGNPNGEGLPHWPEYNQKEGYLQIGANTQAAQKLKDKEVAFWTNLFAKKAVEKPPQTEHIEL
Text: (§1) The desired plasmid was designed such that the recombinant CES1 would be expressed in mammalian cells with a V5-His tag to facilitate detection and purification. Additionally, another plasmid was generated by inserting a stop codon after CES1A1 gene to yield the constructs expressing CES1 without V5-His tag. […] Thus, only untagged CES1 and its associated mutants were used in the enzymatic hydrolysis study. Two constructs of CES1 mutations, p.Gly143Glu and p.Asp260fs, were generated using a site-directed mutagenesis assay. All constructs were subjected to DNA sequencing analysis to confirm that the desired plasmids were obtained. The identified CES1A1 plasmids (WT, p.Gly143Glu, and p.Asp260fs) were co-transfected with pOG44 plasmid at a ratio of 1:10 into Flp-In™-293 cells using […] (Invitrogen, Carlsbad, Calif.). Additionally, the self-ligated pcDNA5/FRT/V5-His-TOPO® vector was included as a vector control. Twenty-four hours after transfection, cells were washed with PBS and fresh complete medium (Dulbecco's modified Eagle's medium containing 10% fetal bovine serum) was added. […]
(§2) After attaining approximately 95% confluence, cells were rinsed and harvested in PBS containing 10 mM HEPES (pH 7.4). […] The protein concentration was determined using a Pierce BCA assay kit (Rockford, Ill.).
(§3) For the study of MPH hydrolysis, the reaction was conducted in 1.5 mL eppendorf tubes with a final S9 concentration of 0.5 mg/mL at a total volume of 100 μL. […] Concentrations of the primary phase I MPH metabolite produced via hydrolysis, ritalinic acid (RA), was determined utilizing an established HPLC method described below.
(§4) Thus, following the enzymatic assay, the values determined for spontaneous PNP and RA hydrolysis were subtracted from the total PNP and RA production. […] All collected data were fit to the Michaelis-Menten equation, and kinetic parameters were calculated using nonlinear regression analysis with Graphpad Prism software (Graphpad Software Inc., San Diego, Calif.) […]

[2] = biological target: T2, p.Gly143Glu CES1 (Homo sapiens, UniProt P23141, G143E); experiment: MPH hydrolysis to ritalinic acid by S9 of cells expressing p.Gly143Glu CES1 (HPLC); conditions: S9 500 μg/ml, even at very high S9 concentration (2 mg/ml); 37° C., 2 h
T2 construct: inserting a stop codon after CES1A1 gene to yield the constructs expressing CES1 without V5-His tag; expressed in transfected cells
T2 sequence (P23141 18-567 G143E/Y526T): T1 sequence (P23141 18-567) with G126E, Y509T
Text: as §1, §2, §3, §4

[3] = biological target: T3, p.Asp260fs CES1 (Homo sapiens, UniProt P23141); experiment: MPH hydrolysis to ritalinic acid by S9 of cells expressing p.Asp260fs CES1 (HPLC); conditions: S9 500 μg/ml, even at very high S9 concentration (2 mg/ml); 37° C., 2 h
T3 construct: a frameshift mutation that alters residues 260-299 and causes early truncation at a premature stop codon; expressed in transfected cells
T3 sequence (P23141 with tags, fused parts or gaps): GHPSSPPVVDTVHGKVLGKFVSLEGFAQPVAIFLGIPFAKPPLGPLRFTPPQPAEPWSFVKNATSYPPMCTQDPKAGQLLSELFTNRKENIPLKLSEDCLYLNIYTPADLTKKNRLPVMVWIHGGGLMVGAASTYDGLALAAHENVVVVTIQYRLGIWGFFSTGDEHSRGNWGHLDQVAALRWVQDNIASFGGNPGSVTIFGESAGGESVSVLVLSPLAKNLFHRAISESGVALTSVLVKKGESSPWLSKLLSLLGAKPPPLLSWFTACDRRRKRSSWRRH
Text: as §1, §2, §3, §4

COC(=O)[C@H](c1ccccc1)[C@H]1CCCCN1 [d-MPH, methylphenidate]
Vmax [1]: 177.2 pmole/min/mg protein
catalytic activity towards MPH hydrolysis [2]: failed to show any hydrolytic activity
catalytic activity towards MPH hydrolysis [3]: failed to show any hydrolytic activity
